Measured values reported in ChEMBL document CHEMBL1201862, “PubChem BioAssay data set” (2004).
The source made the active and inactive calls.

Columns and labels:
[1] = biological target: T1, Sentrin-specific protease 8 (Homo sapiens, UniProt Q96LD8); assay: SENP8 protease inhibitors, SAR follow-up, biochemical, luminescence (AID 504501); format: functional
T1 sequence (Q96LD8 whole entry): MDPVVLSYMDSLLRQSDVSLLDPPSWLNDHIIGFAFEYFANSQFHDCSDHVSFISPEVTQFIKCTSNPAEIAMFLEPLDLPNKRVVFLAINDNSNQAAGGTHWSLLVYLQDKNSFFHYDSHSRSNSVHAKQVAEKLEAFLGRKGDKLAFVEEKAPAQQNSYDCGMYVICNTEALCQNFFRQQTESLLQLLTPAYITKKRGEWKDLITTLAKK

Caspase-3 [2] = biological target: T2, Caspase-3 (Homo sapiens, UniProt P42574); assay: caspase-3 inhibitors as off-family protease, SAR follow-up, selectivity assay for SENP protease inhibitor project, biochemical, luminescence, set 2 (AID 588599); format: functional
T2 sequence (P42574 whole entry): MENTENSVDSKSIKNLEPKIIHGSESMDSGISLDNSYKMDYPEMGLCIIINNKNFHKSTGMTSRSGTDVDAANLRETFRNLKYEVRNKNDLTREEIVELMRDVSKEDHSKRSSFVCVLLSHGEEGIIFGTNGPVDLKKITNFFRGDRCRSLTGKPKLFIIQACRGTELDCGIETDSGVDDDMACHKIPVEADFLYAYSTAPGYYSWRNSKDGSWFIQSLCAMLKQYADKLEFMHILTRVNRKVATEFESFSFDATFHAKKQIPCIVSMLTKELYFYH

[3] = biological target: T1, Sentrin-specific protease 8; assay: SENP8 protease inhibitors, SAR follow-up, biochemical, luminescence, set 2 (AID 588601); format: functional
Caspase-3 [4] = biological target: T2, Caspase-3; assay: SAR Analysis of small molecule inhibitors of Sentrin-specific proteases (SENPs) using a Caspase-3 Selectivity assay. [Related pubchem assays (depositor defined):AID2540, AID2599, AID434973, AID489001]; format: functional
[5] = biological target: T3, Sentrin-specific protease 7 (Homo sapiens, UniProt Q9BQF6); assay: SENP7 protease inhibitors, SAR follow-up, biochemical, luminescence, set 2 (AID 588600); format: functional
T3 sequence (Q9BQF6 whole entry): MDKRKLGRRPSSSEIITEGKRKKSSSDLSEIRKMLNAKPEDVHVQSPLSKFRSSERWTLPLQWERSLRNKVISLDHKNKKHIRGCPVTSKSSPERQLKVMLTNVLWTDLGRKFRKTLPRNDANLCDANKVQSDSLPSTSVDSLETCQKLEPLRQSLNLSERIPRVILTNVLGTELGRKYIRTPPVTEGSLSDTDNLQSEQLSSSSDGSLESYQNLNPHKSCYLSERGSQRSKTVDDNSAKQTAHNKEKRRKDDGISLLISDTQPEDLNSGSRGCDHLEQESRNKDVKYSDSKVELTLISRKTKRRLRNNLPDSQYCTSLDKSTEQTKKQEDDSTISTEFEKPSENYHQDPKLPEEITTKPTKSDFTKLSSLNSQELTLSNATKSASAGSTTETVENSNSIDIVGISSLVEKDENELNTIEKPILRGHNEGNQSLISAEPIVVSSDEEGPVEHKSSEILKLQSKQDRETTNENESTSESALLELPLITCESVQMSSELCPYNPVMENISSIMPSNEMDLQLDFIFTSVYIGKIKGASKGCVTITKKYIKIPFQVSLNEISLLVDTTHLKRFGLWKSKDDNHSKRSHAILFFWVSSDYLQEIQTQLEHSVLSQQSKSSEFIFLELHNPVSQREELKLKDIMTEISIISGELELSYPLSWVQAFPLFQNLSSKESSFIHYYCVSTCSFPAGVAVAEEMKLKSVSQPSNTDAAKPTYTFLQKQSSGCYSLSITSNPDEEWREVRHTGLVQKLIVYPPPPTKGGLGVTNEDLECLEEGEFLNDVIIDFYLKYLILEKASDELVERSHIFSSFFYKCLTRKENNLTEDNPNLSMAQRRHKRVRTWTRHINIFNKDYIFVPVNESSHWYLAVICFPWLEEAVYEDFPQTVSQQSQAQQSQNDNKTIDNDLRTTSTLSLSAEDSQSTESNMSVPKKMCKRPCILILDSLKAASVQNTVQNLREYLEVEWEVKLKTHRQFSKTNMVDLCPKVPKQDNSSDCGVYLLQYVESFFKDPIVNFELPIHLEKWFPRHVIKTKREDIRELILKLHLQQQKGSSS

[6] = biological target: T4, Sentrin-specific protease 6 (Homo sapiens, UniProt Q9GZR1); assay: SAR Analysis of small molecule inhibitors of Sentrin-specific protease 6 (SENP6) using a Luminescent assay. [Related pubchem assays (depositor defined):AID2582, AID2599]; format: functional
T4 sequence (Q9GZR1 whole entry): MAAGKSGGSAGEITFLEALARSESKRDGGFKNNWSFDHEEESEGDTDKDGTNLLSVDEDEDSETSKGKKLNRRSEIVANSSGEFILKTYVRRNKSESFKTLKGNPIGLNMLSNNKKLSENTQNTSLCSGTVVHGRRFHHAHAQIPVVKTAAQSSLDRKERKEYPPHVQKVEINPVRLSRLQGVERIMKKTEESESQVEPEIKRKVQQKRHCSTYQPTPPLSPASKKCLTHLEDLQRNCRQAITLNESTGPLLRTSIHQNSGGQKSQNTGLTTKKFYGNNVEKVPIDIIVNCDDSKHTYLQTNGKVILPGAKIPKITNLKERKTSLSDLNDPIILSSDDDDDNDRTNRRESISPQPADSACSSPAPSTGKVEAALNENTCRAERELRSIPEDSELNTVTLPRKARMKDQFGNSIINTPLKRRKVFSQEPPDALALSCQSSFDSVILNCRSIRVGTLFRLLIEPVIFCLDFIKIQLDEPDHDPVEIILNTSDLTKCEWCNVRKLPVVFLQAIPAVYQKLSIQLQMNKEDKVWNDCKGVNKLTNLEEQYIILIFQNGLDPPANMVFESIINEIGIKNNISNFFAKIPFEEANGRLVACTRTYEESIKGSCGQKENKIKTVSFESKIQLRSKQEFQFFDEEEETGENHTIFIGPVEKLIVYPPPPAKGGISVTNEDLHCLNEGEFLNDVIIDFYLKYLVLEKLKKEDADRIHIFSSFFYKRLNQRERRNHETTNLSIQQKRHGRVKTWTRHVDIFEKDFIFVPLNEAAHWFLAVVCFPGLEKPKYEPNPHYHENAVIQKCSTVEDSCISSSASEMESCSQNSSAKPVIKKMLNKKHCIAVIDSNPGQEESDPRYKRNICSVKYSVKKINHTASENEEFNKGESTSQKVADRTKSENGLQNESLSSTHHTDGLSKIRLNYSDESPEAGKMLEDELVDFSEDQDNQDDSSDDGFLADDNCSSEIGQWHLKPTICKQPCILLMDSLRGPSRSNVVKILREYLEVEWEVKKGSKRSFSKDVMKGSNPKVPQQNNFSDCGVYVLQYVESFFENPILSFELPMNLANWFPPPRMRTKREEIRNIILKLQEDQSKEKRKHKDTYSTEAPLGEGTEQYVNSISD

[7] = biological target: T4, Sentrin-specific protease 6; assay: SENP6 protease inhibitors, SAR follow-up, biochemical, luminescence, set 2 (AID 588598); format: functional
[8] = biological target: T3, Sentrin-specific protease 7; assay: SENP7 protease inhibitors, SAR follow-up, biochemical, luminescence (AID 504497); format: functional
[9] = biological target: Ribosomal protein S6 kinase alpha-3 (Homo sapiens, UniProt P51812); format: functional;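 also: measured within a kinome-wide profiling panel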
[10] = biological target: Serine/threonine-protein kinase pim-1 (Homo sapiens, UniProt P11309); format: functional
[11] = biological target: Serine/threonine-protein kinase Chk1 (Homo sapiens, UniProt O14757); format: functional;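 also: measured as one member of a kinome-wide kinase profiling panel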
[12] = biological target: Megakaryocyte-associated tyrosine-protein kinase (Homo sapiens, UniProt P42679); format: functional;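 also: affinity measured as one member of a kinase panel (Navigating the Kinome) against MATK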
[13] = biological target: Interleukin-1 receptor-associated kinase 1 (Homo sapiens, UniProt P51617); format: functional;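 also: IRAK1 tested as one member of a kinome panel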
[14] = biological target: Serine/threonine-protein kinase BRSK1 (Homo sapiens, UniProt Q8TDC3); format: functional;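 also: measured within a kinome-wide kinase panel, with the target listed as KIAA1811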
[15] = THP-1 cell cytotoxicity, cytotoxicity control, set 6 (AID 602433); format: functional; conditions: Mycobacterium tuberculosis
[16] = biological target: Serine/threonine-protein kinase D2 (Homo sapiens, UniProt Q9BZL6); format: functional;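 also: measured against PRKD2 as one member of a kinome-wide kinase profiling panel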
[17] = biological target: Eukaryotic elongation factor 2 kinase (Homo sapiens, UniProt O00418); format: functional
[18] = biological target: Testis-specific serine/threonine-protein kinase 2 (Homo sapiens, UniProt Q96PF2); format: functional;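 also: part of the Navigating the Kinome panel, target entry STK22B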
[19] = biological target: Protein kinase C gamma type (Homo sapiens, UniProt P05129); format: functional
[20] = biological target: MAP kinase-activated protein kinase 3 (Homo sapiens, UniProt Q16644); format: functional;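 also: value comes from a kinome-wide profiling panel in which MAPKAPK3 is one of the panel members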
[21] = biological target: Dual specificity tyrosine-phosphorylation-regulated kinase 4 (Homo sapiens, UniProt Q9NR20); format: functional
[22] = biological target: Lymphokine-activated killer T-cell-originated protein kinase (Homo sapiens, UniProt Q96KB5); format: functional;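 also: value comes from a kinase panel screen in which TOPK was one of the panel members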
[23] = test system: Streptococcus sp. 'group A'; assay: growth inhibition of control SK(-) GAS strain, dose response, counter-screen for streptokinase expression inhibitor project, luminescence, kanamycin, BacTiterGlo, confirmation (AID 1900); format: functional, organism-based
Streptokinase A = biological target: T5, Streptokinase A (Streptococcus pyogenes serotype M1, UniProt P10520); assay: S. pyogenes streptokinase expression inhibitors, potency, dose response, plasminogen activation absorbance, OD405 (AID 1914); format: functional, Streptococcus pyogenes M1 GAS;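 also: secreted streptokinase activity via plasminogen activation per viability signal from cell pellet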
T5 sequence (P10520 whole entry): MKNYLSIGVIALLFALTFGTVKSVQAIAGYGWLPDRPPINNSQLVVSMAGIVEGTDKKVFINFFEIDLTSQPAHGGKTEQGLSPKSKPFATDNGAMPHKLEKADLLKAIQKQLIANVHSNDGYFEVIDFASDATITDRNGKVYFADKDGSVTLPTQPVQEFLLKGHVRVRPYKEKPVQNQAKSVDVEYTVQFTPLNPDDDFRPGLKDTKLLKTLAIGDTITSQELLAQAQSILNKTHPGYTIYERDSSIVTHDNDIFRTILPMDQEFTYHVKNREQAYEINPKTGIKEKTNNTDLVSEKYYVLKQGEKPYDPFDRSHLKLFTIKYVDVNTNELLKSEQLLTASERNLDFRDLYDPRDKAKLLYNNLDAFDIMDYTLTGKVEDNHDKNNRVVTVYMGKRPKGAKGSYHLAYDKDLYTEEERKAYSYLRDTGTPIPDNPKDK

Streptococcus = assay: Group A Streptococcus viability loss, dose response, counter-screen for streptokinase expression inhibitor project, luminescence, BacTiterGlo (AID 1915); format: functional, organism-based;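 also: potency for reduction of bacterial viability or growth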
Bcl-2-related protein A1 = biological target: T6, Bcl-2-related protein A1 (Mus musculus, UniProt Q07440); format: functional;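 also: confirmatory dose–response counterscreen on Bfl-1, used to check hits from a UBC13 polyubiquitin inhibitor campaign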
T6 sequence (Q07440 whole entry): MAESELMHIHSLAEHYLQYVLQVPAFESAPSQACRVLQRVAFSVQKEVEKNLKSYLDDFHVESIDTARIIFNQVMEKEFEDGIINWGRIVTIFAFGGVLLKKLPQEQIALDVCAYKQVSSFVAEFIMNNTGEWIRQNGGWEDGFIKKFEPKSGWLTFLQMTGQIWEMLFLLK

[24] = biological target: T7, Ubiquitin-conjugating enzyme E2 N (Homo sapiens, UniProt P61088); format: functional
T7 sequence (P61088 whole entry): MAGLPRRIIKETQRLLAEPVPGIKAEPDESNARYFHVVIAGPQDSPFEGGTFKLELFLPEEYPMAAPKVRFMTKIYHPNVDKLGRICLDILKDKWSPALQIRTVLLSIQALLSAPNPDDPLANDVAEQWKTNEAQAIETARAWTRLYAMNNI

[25] = biological target: T7, Ubiquitin-conjugating enzyme E2 N; format: functional; remark: listed apart in the source
Apelin receptor = Apelin receptor (Homo sapiens, UniProt P35414); assay: APJ beta-arrestin recruitment antagonism, SAR follow-up, selectivity assay for CCR6 antagonist project, cell-based, luminescent, enzyme-fragment complementation (AID 588359); format: functional
[26] = biological target: C-X-C chemokine receptor type 5 (Homo sapiens, UniProt P32302); assay: CXCR5 receptor antagonists, SAR follow-up, selectivity assay for CCR6 antagonist project, cell-based, beta-arrestin, luminescence, CHO-K1 PathHunter (AID 540340); format: functional
[27] = biological target: C-C chemokine receptor type 6 (Homo sapiens, UniProt P51684); assay: CCR6 receptor antagonists, SAR follow-up, cell-based, luminescent beta-arrestin readout (AID 540334); format: functional
[28] = biological target: Voltage-gated inwardly rectifying potassium channel KCNH2 (Homo sapiens, UniProt Q12809); conditions: Potency;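 also: confirmatory quantitative high-throughput screen measuring inhibition of hERG channel activity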

Sequence of Serine/threonine-protein kinase Chk1 (O14757 whole entry): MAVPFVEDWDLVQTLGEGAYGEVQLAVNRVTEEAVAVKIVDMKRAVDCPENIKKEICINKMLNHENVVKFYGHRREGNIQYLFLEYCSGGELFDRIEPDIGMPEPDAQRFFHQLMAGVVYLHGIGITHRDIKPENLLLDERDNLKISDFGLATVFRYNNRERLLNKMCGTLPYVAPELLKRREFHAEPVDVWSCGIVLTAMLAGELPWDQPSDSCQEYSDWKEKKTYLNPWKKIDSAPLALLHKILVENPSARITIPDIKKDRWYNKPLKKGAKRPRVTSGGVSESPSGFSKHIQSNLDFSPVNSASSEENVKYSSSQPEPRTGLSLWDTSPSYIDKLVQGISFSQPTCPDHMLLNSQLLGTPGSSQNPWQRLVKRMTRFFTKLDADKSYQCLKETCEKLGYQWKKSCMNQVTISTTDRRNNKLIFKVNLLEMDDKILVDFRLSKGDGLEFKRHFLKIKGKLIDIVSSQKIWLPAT
Sequence of MAP kinase-activated protein kinase 3 (Q16644 whole entry): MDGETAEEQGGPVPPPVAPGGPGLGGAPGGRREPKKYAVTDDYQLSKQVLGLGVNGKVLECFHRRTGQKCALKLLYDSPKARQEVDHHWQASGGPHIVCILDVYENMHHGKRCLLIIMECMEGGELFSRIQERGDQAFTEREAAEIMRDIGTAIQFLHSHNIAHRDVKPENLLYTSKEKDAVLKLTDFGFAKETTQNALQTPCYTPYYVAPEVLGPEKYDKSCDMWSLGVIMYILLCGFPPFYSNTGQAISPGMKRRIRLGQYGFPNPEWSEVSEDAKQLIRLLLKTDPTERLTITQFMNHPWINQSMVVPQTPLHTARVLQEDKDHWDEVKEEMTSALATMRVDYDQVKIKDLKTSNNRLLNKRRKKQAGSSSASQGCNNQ
Sequence of Eukaryotic elongation factor 2 kinase (O00418 whole entry): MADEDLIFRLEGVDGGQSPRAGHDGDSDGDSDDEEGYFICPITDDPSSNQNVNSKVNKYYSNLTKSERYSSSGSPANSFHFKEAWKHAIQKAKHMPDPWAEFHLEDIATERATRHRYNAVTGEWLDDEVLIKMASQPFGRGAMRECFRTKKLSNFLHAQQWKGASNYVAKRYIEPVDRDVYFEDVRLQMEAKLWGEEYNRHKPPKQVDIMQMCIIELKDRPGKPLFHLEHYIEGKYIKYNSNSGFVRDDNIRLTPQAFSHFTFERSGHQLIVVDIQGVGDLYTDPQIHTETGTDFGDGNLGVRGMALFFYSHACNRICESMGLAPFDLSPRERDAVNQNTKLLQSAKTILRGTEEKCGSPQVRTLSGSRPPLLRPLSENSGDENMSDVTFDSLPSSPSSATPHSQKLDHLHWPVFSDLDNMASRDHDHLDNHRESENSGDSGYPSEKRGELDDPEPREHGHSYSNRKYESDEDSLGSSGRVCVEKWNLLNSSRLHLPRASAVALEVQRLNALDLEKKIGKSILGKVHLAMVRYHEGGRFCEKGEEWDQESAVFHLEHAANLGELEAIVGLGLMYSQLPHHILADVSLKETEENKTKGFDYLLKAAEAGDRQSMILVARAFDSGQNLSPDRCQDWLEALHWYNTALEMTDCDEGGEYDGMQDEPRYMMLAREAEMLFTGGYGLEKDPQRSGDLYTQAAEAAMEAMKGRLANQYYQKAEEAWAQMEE
Sequence of Serine/threonine-protein kinase BRSK1 (Q8TDC3 whole entry): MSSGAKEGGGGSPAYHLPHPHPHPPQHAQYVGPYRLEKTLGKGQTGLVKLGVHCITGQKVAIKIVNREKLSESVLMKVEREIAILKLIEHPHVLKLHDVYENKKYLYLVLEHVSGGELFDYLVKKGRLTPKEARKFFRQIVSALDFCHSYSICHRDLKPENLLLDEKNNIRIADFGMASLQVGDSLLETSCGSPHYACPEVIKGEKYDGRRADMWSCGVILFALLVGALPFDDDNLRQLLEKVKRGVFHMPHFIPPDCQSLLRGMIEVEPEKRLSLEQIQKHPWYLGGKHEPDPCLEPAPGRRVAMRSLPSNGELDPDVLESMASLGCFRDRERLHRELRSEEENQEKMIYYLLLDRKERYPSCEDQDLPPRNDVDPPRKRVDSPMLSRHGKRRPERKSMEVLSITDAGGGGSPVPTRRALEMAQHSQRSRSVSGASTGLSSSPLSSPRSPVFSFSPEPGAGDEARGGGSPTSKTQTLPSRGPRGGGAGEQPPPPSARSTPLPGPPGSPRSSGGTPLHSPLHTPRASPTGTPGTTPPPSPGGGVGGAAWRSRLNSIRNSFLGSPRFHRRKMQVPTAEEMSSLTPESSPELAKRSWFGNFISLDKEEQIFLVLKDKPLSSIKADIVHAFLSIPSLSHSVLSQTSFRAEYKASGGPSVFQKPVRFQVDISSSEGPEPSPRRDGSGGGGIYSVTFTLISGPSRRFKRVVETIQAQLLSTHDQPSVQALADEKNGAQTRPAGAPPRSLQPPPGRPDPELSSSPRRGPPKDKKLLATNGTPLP
Sequence of Serine/threonine-protein kinase pim-1 (P11309 whole entry): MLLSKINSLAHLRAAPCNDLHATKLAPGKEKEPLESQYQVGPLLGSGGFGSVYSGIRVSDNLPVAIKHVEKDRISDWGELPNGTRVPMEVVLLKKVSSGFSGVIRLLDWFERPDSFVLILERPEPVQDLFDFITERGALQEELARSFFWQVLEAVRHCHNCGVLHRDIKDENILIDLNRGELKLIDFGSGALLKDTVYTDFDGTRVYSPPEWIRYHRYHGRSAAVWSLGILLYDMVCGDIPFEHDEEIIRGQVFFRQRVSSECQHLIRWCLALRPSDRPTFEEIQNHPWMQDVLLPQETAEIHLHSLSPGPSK
Sequence of C-X-C chemokine receptor type 5 (P32302 whole entry): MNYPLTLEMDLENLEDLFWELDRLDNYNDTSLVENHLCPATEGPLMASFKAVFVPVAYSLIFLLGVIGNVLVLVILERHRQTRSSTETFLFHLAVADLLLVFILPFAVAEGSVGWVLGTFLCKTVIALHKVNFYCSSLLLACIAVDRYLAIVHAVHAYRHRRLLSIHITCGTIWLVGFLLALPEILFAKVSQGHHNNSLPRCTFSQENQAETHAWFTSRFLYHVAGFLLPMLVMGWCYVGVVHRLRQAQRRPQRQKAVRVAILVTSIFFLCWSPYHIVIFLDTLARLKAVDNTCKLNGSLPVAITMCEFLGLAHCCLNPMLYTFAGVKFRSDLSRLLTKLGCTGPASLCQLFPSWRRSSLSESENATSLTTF
Sequence of Lymphokine-activated killer T-cell-originated protein kinase (Q96KB5 whole entry): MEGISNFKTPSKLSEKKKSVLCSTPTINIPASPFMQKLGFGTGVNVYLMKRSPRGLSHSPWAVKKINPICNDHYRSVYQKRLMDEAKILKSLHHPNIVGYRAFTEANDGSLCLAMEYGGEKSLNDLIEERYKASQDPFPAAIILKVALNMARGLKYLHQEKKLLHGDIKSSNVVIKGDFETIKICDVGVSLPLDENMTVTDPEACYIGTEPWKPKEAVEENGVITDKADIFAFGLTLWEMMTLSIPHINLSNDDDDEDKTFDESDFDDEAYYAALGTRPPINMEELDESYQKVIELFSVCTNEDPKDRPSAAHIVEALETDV
Sequence of Testis-specific serine/threonine-protein kinase 2 (Q96PF2 whole entry): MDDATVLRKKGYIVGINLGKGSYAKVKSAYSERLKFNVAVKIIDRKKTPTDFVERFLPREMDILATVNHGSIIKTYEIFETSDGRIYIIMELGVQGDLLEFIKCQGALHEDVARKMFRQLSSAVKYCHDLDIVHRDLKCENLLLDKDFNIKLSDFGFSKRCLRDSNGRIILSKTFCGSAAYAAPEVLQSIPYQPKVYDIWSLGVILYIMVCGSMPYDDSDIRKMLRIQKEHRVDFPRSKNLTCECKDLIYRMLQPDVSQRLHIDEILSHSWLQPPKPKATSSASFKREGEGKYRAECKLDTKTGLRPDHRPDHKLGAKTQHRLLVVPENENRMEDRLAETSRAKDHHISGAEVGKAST
Sequence of Dual specificity tyrosine-phosphorylation-regulated kinase 4 (Q9NR20 whole entry): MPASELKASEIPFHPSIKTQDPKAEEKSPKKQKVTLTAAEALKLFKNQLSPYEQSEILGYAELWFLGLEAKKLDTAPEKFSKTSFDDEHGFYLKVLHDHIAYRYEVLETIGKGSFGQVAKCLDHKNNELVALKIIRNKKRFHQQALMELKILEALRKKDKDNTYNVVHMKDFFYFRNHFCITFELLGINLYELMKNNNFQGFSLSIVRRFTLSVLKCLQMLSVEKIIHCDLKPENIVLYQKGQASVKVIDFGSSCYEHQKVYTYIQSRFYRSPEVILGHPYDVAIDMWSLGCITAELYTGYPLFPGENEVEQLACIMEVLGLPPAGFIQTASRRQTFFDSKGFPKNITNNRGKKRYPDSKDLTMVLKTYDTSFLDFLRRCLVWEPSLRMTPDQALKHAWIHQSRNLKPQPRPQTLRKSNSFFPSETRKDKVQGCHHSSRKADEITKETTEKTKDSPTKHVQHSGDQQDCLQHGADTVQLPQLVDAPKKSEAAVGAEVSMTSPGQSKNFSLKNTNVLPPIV
Sequence of Ribosomal protein S6 kinase alpha-3 (P51812 whole entry): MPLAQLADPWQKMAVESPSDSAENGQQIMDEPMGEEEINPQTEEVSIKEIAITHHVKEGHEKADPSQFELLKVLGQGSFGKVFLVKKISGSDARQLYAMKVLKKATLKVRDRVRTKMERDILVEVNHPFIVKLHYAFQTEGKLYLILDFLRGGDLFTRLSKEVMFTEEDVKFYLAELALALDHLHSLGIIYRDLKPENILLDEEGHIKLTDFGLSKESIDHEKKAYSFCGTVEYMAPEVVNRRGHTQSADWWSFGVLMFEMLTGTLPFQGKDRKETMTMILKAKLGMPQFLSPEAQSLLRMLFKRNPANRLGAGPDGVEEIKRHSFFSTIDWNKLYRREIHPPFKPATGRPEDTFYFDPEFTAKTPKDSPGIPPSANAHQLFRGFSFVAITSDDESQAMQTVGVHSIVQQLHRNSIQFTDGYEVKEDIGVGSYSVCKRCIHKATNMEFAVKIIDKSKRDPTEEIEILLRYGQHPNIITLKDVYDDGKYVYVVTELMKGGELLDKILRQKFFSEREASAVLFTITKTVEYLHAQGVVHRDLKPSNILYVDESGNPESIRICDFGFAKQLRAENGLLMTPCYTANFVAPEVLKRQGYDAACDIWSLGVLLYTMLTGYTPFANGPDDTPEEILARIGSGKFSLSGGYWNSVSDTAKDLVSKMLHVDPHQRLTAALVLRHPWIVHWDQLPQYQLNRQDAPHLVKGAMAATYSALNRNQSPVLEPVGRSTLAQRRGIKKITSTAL

With `Oc1ccccc1-c1nc(/C=C/c2ccc(Cl)cc2)no1` the IC50 [1] was > 99 µM (inactive), the IC50 (Caspase-3 [2]) was 1.57 µM (active) and the IC50 [3] was 1.44 µM (active). For the same compound, the IC50 (Caspase-3 [4]) was 3.7 µM (active), the IC50 [5] was 2.08 µM (active) and the IC50 [6] was > 99 µM (inactive). For the same compound, the IC50 [7] was 1.5 µM (active) and the IC50 [8] was 1.4 µM (active).
With `Cc1ccc2c(=O)[nH]cnc2c1` the Ki [9] was 5.01 µM (active), the Ki [10] was 7.94 µM (active) and the Ki [11] was 15.8 µM (active).
For `CC1=NN(c2ccc(C(=O)O)cc2)C(=O)C1=Cc1c(C)cc2nc3ccccc3n2c1O`, the Ki [12] was 1.58 µM (active), the Ki [13] was 6.31 µM (active) and the Ki [14] was 5.01 µM (active).
In the case of `COCCNC(=O)CSc1nc2ccccc2c(=O)[nH]1`, the CC50 [15] is reported as > 100 µM (active).
With `CCN(CC)CCNC(=O)c1c(C)[nH]c(C=C2C(=O)Nc3ccc(F)cc32)c1C` the Ki [16] was 0.398 µM (active), the Ki [17] was > 3.98 µM (inactive) and the Ki [18] was 0.631 µM (active). The Ki [19] was > 6.31 µM (inactive), the Ki [20] was > 10 µM (inactive) and the Ki [21] was > 7.94 µM (inactive). The Ki [22] was > 10 µM (inactive).
In the case of `CCCCCCCCCCCCC/C=C/[C@@H](O)[C@@H](N)CO` [SPHINGOSINE], the EC50 [23] is reported as 1.52 µM (active), the EC50 (Streptokinase A) is reported as > 150 µM (not active) and the EC50 (Streptococcus) is reported as 8.1 µM (active). For the same compound, the IC50 (Bcl-2-related protein A1) was > 20 µM (inactive), the IC50 [24] was 6.42 µM (active) and the IC50 [25] was 6.2 µM (active). For the same compound, the IC50 (Apelin receptor) was > 66.6 µM (inactive), the IC50 [26] was 32.5 µM (inactive) and the IC50 [27] was 20.9 µM (inactive). The AC50 [28] was 35.5 µM (inconclusive).
